Paper PMC12584752, “Covalent fragment screening to inhibit the E3 ligase activity of bacterial NEL enzymes SspH1 and SspH2” (RSC Chemical Biology, 2025)

Key:
Settings in all cases: live HEK293T cells, 50 μM, four hours
[1] = biological target: T1, SspH1 expressed in HEK293T cells (Salmonella typhimurium, UniProt D0ZVG2); test: In cellulo target engagement, IA-DTB chemoproteomics; format: cell-based
T1 construct: SspH1 (aa 1–700) and SspH2 (aa 1–786) genes were cloned separately; expressed in transfected cells; host or cells: HEK293T
Procedure: (§1) Fig. 5 Characterisation of protein interactions by compounds 6 and 7. (A) SspH1 and SspH2 catalytic cysteine labelling with compound 6 (100–3.125 μM, 4 hours) in HEK293T lysate spiked with recombinant SspH1 and SspH2. Data are presented as mean ± SEM, n = 4. The curves were fitted with GraphPad Prism 10 using four parameter nonlinear regression with baseline correction to DMSO-treated samples. (B) SspH1 and SspH2 catalytic cysteine labelling with compound 7 (100–3.125 μM, 4 hours) in HEK293T lysate spiked with recombinant SspH1 and SspH2. Data are presented as mean ± SEM, n = 4. The curves were fitted with GraphPad Prism 10 using four parameter nonlinear regression with baseline correction to DMSO-treated samples. (C) Volcano plot of IA-DTB competition in SspH1 expressing HEK293T cells treated with compound 6 (50 μM, 4 hours). (D) Volcano plot of IA-DTB competition in SspH2 expressing HEK293T cells treated with compound 6 (50 μM, 4 hours). Data is shown as compared to DMSO treated samples, with competed peptides in the upper left-hand quadrant. […]
(§2) All cells were grown in DMEM media (Gibco, 41966-029) supplemented with FBS (ThermoFisher, A5256701) and Pen/Strep (Gibco, 15140-122) at 37 °C with 5% CO2. […] Protein concentrations were measured using a Rapid BCA Gold Protein Assay Kit (Thermo Scientific, A53226) and diluted to 1 mg mL^−1 with lysis buffer. […]

[2] = biological target: T2, SspH2 expressed in HEK293T cells (Salmonella typhimurium, UniProt D0ZPH9); test: as above; format: cell-based
T2 construct: SspH1 (aa 1–700) and SspH2 (aa 1–786) genes were cloned separately; expressed in transfected cells; host or cells: HEK293T
Procedure: as §1, §2

[3] = tested on: mammalian proteins in HEK293T cells; test: In cellulo IA-DTB chemoproteomics, off-target engagement; format: cell-based, human
Procedure: as §1, §2

T2 sequence (D0ZPH9 1-786): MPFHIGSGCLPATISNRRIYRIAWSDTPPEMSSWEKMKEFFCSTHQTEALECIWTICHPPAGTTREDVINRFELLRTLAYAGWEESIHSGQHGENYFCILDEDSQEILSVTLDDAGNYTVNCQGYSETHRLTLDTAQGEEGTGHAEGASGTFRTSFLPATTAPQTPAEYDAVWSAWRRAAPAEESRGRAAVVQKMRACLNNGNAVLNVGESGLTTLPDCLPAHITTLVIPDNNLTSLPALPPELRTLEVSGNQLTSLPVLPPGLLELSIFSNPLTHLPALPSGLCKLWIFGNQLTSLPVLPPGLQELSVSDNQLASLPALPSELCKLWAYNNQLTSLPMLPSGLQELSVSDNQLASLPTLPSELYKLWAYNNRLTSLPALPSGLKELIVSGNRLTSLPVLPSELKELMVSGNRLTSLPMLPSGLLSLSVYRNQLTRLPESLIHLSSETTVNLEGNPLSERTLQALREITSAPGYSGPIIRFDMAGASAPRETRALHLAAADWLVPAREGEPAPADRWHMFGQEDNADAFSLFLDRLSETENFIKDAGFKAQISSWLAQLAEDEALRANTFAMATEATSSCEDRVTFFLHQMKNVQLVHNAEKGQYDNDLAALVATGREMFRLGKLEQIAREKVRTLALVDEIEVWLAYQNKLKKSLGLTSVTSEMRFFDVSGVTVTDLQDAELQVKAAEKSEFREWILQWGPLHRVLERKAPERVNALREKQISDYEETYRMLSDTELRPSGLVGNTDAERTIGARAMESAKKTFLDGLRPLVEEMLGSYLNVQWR
T1 sequence (D0ZVG2 whole entry, the tested form may be a part): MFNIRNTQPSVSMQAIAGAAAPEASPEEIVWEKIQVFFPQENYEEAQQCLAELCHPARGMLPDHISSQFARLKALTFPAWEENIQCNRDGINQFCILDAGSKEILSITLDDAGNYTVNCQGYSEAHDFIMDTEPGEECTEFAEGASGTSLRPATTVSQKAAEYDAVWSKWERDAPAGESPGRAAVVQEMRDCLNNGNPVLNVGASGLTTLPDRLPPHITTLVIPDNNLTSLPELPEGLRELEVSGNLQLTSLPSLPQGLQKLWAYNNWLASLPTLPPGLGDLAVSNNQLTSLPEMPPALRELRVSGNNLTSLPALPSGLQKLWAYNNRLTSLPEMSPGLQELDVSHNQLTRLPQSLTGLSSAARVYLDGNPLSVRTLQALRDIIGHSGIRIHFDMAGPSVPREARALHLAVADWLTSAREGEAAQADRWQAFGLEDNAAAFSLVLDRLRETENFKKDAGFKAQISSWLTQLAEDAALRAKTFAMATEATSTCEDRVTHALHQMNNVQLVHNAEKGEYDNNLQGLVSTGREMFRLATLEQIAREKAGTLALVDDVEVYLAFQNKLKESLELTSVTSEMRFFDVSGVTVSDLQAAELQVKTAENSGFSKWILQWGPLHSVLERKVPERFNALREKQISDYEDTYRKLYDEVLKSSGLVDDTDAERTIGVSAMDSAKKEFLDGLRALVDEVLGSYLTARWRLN

Cc1cc(-c2nc3ccccc3n2C2CCN(C(=O)CCl)CC2)cc(C)c1O.Cl [compound 6]
competition of IA-DTB labelling of catalytic cysteine C492 peptide of SspH1 [1]: strong competition | competition of IA-DTB labelling of C580 peptide of SspH2 [2]: strong competition | engagement of catalytic cysteines-containing peptides of HECT or RBR E3 ligases, or DUBs [3]: none | engagement of mammalian proteins [3]: engagement of multiple mammalian proteins
